Columns and labels:
[1] = target: T1, RAR γ (Homo sapiens, UniProt P13631); assay: Affinity for RAR γ receptor (Kd); format: binding; conditions: read-out: Affinities for receptors Kd, RAR γ
T1 sequence (P13631 1-454): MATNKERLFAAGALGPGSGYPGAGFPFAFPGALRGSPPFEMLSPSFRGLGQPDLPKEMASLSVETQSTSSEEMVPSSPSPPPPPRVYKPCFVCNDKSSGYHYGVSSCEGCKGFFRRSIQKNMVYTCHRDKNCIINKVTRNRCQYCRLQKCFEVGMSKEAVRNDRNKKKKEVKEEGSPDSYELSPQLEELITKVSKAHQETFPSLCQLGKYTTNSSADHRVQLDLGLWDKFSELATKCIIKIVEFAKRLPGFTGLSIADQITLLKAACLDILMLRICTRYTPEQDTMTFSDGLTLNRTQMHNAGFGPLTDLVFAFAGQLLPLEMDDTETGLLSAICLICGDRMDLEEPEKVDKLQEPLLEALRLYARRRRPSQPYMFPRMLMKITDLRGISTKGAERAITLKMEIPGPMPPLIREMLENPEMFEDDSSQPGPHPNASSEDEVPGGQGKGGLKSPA
Protocol: (§1) Biological activities of certain compounds described and exemplified above:
(§2) ^(a) The affinites for the RARs were determined under the conditions
(§3) described in B. Martin et al, "Selective Synthetic Ligands for Human
(§4) Nuclear Retinoic Acid Receptors," Skin Pharmacol., 5, 57-65 (1992).

[2] = target: T2, RAR β (Homo sapiens, UniProt P10826); assay: Affinity for RAR β receptor (Kd); format: binding; conditions: read-out: Affinities for receptors Kd, RAR β
T2 sequence (P10826 1-448 isoform P10826-2): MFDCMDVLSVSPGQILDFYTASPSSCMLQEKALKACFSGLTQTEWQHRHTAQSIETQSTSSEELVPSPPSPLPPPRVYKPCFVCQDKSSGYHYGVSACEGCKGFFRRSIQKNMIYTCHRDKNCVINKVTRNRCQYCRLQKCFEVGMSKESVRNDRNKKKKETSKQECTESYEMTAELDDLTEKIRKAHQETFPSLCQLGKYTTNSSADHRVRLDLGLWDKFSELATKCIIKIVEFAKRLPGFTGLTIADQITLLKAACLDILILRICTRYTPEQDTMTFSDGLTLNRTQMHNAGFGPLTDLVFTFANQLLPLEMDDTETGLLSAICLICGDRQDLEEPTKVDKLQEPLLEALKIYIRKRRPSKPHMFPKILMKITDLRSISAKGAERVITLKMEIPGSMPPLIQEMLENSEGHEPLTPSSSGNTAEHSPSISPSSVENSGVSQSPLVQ
Protocol: as §1, §2, §3, §4

[3] = target: T3, RAR α (Homo sapiens, UniProt P10276); assay: Affinity for RAR α receptor (Kd); format: binding; conditions: read-out: Affinities for receptors Kd, RAR α
T3 sequence (P10276 1-462): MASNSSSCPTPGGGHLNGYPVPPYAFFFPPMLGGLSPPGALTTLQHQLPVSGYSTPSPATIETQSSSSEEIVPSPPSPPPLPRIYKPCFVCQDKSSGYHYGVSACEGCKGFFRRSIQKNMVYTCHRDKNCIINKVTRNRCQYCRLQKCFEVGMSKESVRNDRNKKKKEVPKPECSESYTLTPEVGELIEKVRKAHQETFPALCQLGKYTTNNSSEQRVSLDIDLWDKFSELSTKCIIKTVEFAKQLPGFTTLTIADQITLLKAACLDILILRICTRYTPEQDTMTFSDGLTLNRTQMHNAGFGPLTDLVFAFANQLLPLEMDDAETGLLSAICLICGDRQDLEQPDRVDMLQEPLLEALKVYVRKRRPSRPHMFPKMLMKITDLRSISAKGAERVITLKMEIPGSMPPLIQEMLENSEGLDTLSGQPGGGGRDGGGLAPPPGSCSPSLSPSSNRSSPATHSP
Protocol: as §1, §2, §3, §4

[4] = tested on: F9 cells; assay: Antagonist activity with respect to the differentiation of F9 cells; format: cell-based; conditions: Mus musculus; coincubation with reference agonist (F9 AC50 = 4nM)
Protocol: Their activities may also be measured in tests of cellular transactivation using previously transfected recombinant RAR or RXR receptors (B. A. Bernard et al, Biochemical and Biophysical Research Communications, vol. 186, pp. 977-983 (1992)); M. F. Boehm et al, Journal of Medicinal Chemistry, p37, pp. 408-414 (1994)).
^(b) The antagonist activity was determined by coincubating a
[N(4-carboxybenzyl)-5,6,7,8-tetrahydro-5,5,8,8-tetramethyl-2-naphthylamin
(F9 AC50 = 4nM)] and different concentrations of the test retinoid.
These experiments were carried out under conditions for the determination
of activity with respect to the differentiation of F9 cells according to
the technique described in M. Darmon, M. Rocher, M. T. Cavey, B. Martin,
T. Rabilloud, C. Delescluse and B. Shroot, "Biological activity of
retinoids correlates with affinity for nuclear receptors, but not for
cytosolic binding protein," Skin Pharmacol., 1, 161-175 (1988).

[5] = tested on: F9 cells; assay: Agonist activity, differentiation of F9 cells; format: cell-based; conditions: Mus musculus, reference agonist

| SMILES | Kd [1] | Kd [2] | Kd [3] | IC50 [4] | AC50 [5] |
| --- | --- | --- | --- | --- | --- |
| CC12CCC(C1)C1(C)Oc3ccc(C(=O)/C=C/c4ccc(C(=O)O)cc4)cc3C21C (single isomer, unassigned) [Example 23, 4-[(E)-3-(1,2,3,4-Tetrahydro-1,4a,9b-trimethyl-1,4-methanodibenzofuran-8-yl)-3-oxo-1-propenyl]benzoic acid] | 0.027 µM | 0.053 µM | 0.22 µM | 0.019 µM | – |
| CC12CCC(C1)C1(C)Oc3ccc(C(=O)COc4ccc(C(=O)O)cc4)cc3C21C (stereo not drawn) [Example 12, 4-[2-(1,2,3,4-tetrahydro-1,4a,9b-trimethyl-1,4-methanodibenzofuran-8-yl)-2-oxoethoxy]benzoic acid] | 0.481 µM | 0.745 µM | 3.2 µM | 0.04 µM | – |
| CC12CCC(C1)C1(C)Oc3ccc(C(O)COc4ccc(C(=O)O)cc4)cc3C21C (stereo not drawn) [Example 13, 4-[2-(1,2,3,4-tetrahydro-1,4a,9b-trimethyl-1,4-methanodibenzofuran-8-yl)-2-hydroxyethoxy]benzoic acid] | 0.04 µM | 0.23 µM | > 3.2 µM | 0.036 µM | – |
| CC12CCC(C1)C1(C)Oc3ccc(C(=O)COc4ccc(C(=O)O)c(O)c4)cc3C21C (stereo not drawn) [Example 15, 4-[2-(1,2,3,4-tetrahydro-1,4a,9b-trimethyl-1,4-methanodibenzofuran-8-yl)-2-oxoethoxy]-2-hydroxybenzoic acid] | 0.15 µM | 0.114 µM | 2.5 µM | 0.055 µM | – |
| CC12CCC(C1)C1(C)Oc3ccc(CCOc4ccc(C(=O)O)c(O)c4)cc3C21C (stereo not drawn) [Example 17, 4-[2-(1,2,3,4-tetrahydro-1,4a,9b-trimethyl-1,4-methanodibenzofuran-8-yl)ethoxy]-2-hydroxybenzoic acid] | 2.25 µM | 0.315 µM | > 10 µM | 0.27 µM | – |
| CC1(C)CCC(C)(C)c2cc(NCc3ccc(C(=O)O)cc3)ccc21 [N(4-carboxybenzyl)-5,6,7,8-tetrahydro-5,5,8,8-tetramethyl-2-naphthylamin] | – | – | – | – | 0.004 µM |

Reference: patent US5747530A, “Aromatic dibenzofuran compounds and pharmaceutical/cosmetic compositions comprised thereof” (Centre International de Recherches Dermatologiques Galderma, priority 1994, dated 1998)
